US9580444B2, “Polycyclic pyrazolinone derivative and herbicide comprising same as effective component thereof” (priority 2013, dated 2017)

Experiments:
Type in all cases: in vivo
Settings in all cases: 500 g a.i/ha, foliage treatment after emergence, about 14 days after treatment, score 0-5
corn = assay: Test Example-4: phytotoxicity by a foliage treatment after weeds are generated under upland field conditions
Description: (§1) Using the formulation prepared according to the methods described above, the herbicidal effect of the bicyclic pyrazolinone derivative of the invention according to the methods shown in Test Examples below was examined. The herbicidal effect with respect to the test weeds or the phytotoxicity with respect to the test crops was examined according to the following criteria, and evaluated in six stage scores of 0 to 5. A vat having an area of 65 cm^2 and a depth of 2 cm was filled with upland soil, then, seeds of Amaranthus viridis (green amaranthus), Abutilon theophrasti (velvetleaf), Chenopodium album (common lambsquarters), […]. While watering was suitably performed on there, the seeds were grown for 14 days. A wettable powder or an emulsifiable concentrate of the compound of the present invention prepared according to Formulation Example was diluted, and a spray treatment was uniformly performed on the foliage portion of the plant so as to be a predetermined dosage in the amount of water of 4000 L per hectare. The herbicidal effect with respect to the test weeds and the phytotoxicity with respect to corn about 14 days after the treatment were evaluated according to the evaluation criteria in six stages of 0 to 5 described above.

[1] = tested on: Chenopodium album (common lambsquarters); assay: Test Example-4: herbicidal effect by a foliage treatment after weeds are generated under upland field conditions
Description: as §1

[2] = tested on: Amaranthus viridis (green amaranthus); assay: as above
Description: as §1

[3] = tested on: Abutilon theophrasti (velvetleaf); assay: as above
Description: as §1

| Structure (SMILES) | Phytotoxicity Corn (corn) | Herbicidal effect Chenopodium album [1] | Herbicidal effect Amaranthus viridis [2] | Herbicidal effect Abutilon theophrast [3] |
| --- | --- | --- | --- | --- |
| COc1cc(-c2c(Cl)n3n(c2=O)CCCC3)ccc1Cl [Example 1-44] | 0 (Herbicidal effect/phytotoxicity was 0% to 10%) | 5 (Herbicidal effect/phytotoxicity was 90% or greater) | 5 (Herbicidal effect/phytotoxicity was 90% or greater) | 5 (Herbicidal effect/phytotoxicity was 90% or greater) |
| CC(C)Oc1ccccc1Oc1cc(-c2c(Cl)n3n(c2=O)CCCC3)c(F)cc1Cl [Example 3-8] | 0 (Herbicidal effect/phytotoxicity was 0% to 10%) | 5 (Herbicidal effect/phytotoxicity was 90% or greater) | 5 (Herbicidal effect/phytotoxicity was 90% or greater) | 5 (Herbicidal effect/phytotoxicity was 90% or greater) |
| CCCOC(=CC(=O)OCC)COc1cc(-c2c(Cl)n3n(c2=O)CCCC3)c(F)cc1Cl (mixture of isomers) [Example 2-20] | 0 (Herbicidal effect/phytotoxicity was 0% to 10%) | 5 (Herbicidal effect/phytotoxicity was 90% or greater) | 5 (Herbicidal effect/phytotoxicity was 90% or greater) | 5 (Herbicidal effect/phytotoxicity was 90% or greater) |
| C=CCOc1cc(-c2c(Cl)n3n(c2=O)CCCC3)ccc1Cl [Example 1-59] | 0 (Herbicidal effect/phytotoxicity was 0% to 10%) | 5 (Herbicidal effect/phytotoxicity was 90% or greater) | 5 (Herbicidal effect/phytotoxicity was 90% or greater) | 5 (Herbicidal effect/phytotoxicity was 90% or greater) |
| C#CCOc1cc(C)ccc1Oc1cc(-c2c(Cl)n3n(c2=O)CCCC3)c(F)cc1Cl [Example 3-43] | 0 (Herbicidal effect/phytotoxicity was 0% to 10%) | 5 (Herbicidal effect/phytotoxicity was 90% or greater) | 5 (Herbicidal effect/phytotoxicity was 90% or greater) | 5 (Herbicidal effect/phytotoxicity was 90% or greater) |
| Nc1cc(-c2c(Cl)n3n(c2=O)CCCC3)c(F)cc1Cl [Example 5-11] | 1 (Herbicidal effect/phytotoxicity was 10% to 30%) | 5 (Herbicidal effect/phytotoxicity was 90% or greater) | 5 (Herbicidal effect/phytotoxicity was 90% or greater) | 5 (Herbicidal effect/phytotoxicity was 90% or greater) |
| CC#CCOc1ccccc1Oc1cc(-c2c(Cl)n3n(c2=O)CCCC3)c(F)cc1Cl [Example 3-30] | 1 (Herbicidal effect/phytotoxicity was 10% to 30%) | 5 (Herbicidal effect/phytotoxicity was 90% or greater) | 5 (Herbicidal effect/phytotoxicity was 90% or greater) | 5 (Herbicidal effect/phytotoxicity was 90% or greater) |
| COc1ccccc1Oc1cc(-c2c(Cl)n3n(c2=O)CCCC3)c(F)cc1Cl [Example 3-2] | 2 (Herbicidal effect/phytotoxicity was 30% to 50%) | 5 (Herbicidal effect/phytotoxicity was 90% or greater) | 5 (Herbicidal effect/phytotoxicity was 90% or greater) | 5 (Herbicidal effect/phytotoxicity was 90% or greater) |
| CCOC(=CC(=O)OCC(C)C)COc1cc(-c2c(Cl)n3n(c2=O)CCCC3)c(F)cc1Cl [Example 2-27] | 0 (Herbicidal effect/phytotoxicity was 0% to 10%) | 5 (Herbicidal effect/phytotoxicity was 90% or greater) | 5 (Herbicidal effect/phytotoxicity was 90% or greater) | 5 (Herbicidal effect/phytotoxicity was 90% or greater) |
| C#CCOc1cc(F)ccc1Oc1cc(-c2c(Cl)n3n(c2=O)CCCC3)c(F)cc1Cl [Example 3-35] | 1 (Herbicidal effect/phytotoxicity was 10% to 30%) | 5 (Herbicidal effect/phytotoxicity was 90% or greater) | 5 (Herbicidal effect/phytotoxicity was 90% or greater) | 5 (Herbicidal effect/phytotoxicity was 90% or greater) |
| C=C(C)COc1ccccc1Oc1cc(-c2c(Cl)n3n(c2=O)CCCC3)c(F)cc1Cl [Example 3-22] | 0 (Herbicidal effect/phytotoxicity was 0% to 10%) | 5 (Herbicidal effect/phytotoxicity was 90% or greater) | 5 (Herbicidal effect/phytotoxicity was 90% or greater) | 5 (Herbicidal effect/phytotoxicity was 90% or greater) |
| CC1(COc2cc(-c3c(Cl)n4n(c3=O)CCCC4)c(F)cc2Cl)CC(c2ccccc2Cl)=NO1 (stereo not shown) [Example 4-5] | 1 (Herbicidal effect/phytotoxicity was 10% to 30%) | 5 (Herbicidal effect/phytotoxicity was 90% or greater) | 5 (Herbicidal effect/phytotoxicity was 90% or greater) | 5 (Herbicidal effect/phytotoxicity was 90% or greater) |
| COc1cc(C)ccc1Oc1cc(-c2c(Cl)n3n(c2=O)CCCC3)c(F)cc1Cl [Example 3-41] | 1 (Herbicidal effect/phytotoxicity was 10% to 30%) | 5 (Herbicidal effect/phytotoxicity was 90% or greater) | 5 (Herbicidal effect/phytotoxicity was 90% or greater) | 5 (Herbicidal effect/phytotoxicity was 90% or greater) |
| CC1(COc2cc(-c3c(Cl)n4n(c3=O)CCCC4)c(F)cc2Cl)CC(c2ccc(Cl)cc2Cl)=NO1 (stereo not shown) [Example 4-12] | 1 (Herbicidal effect/phytotoxicity was 10% to 30%) | 5 (Herbicidal effect/phytotoxicity was 90% or greater) | 5 (Herbicidal effect/phytotoxicity was 90% or greater) | 5 (Herbicidal effect/phytotoxicity was 90% or greater) |
| CCCOC(=O)C=C(COc1cc(-c2c(Cl)n3n(c2=O)CCCC3)c(F)cc1Cl)OCC (mixture of isomers) [Example 2-23] | 0 (Herbicidal effect/phytotoxicity was 0% to 10%) | 5 (Herbicidal effect/phytotoxicity was 90% or greater) | 5 (Herbicidal effect/phytotoxicity was 90% or greater) | 5 (Herbicidal effect/phytotoxicity was 90% or greater) |
| COC(=O)C=C(COc1ccccc1Oc1cc(-c2c(Cl)n3n(c2=O)CCCC3)c(F)cc1Cl)OC [Example 3-23] | 0 (Herbicidal effect/phytotoxicity was 0% to 10%) | 5 (Herbicidal effect/phytotoxicity was 90% or greater) | 5 (Herbicidal effect/phytotoxicity was 90% or greater) | 5 (Herbicidal effect/phytotoxicity was 90% or greater) |
| C=C(COc1cc(-c2c(Cl)n3n(c2=O)CCCC3)c(F)cc1Cl)c1ccc(OCC)c(F)c1F [Example 1-230] | 0 (Herbicidal effect/phytotoxicity was 0% to 10%) | 5 (Herbicidal effect/phytotoxicity was 90% or greater) | 5 (Herbicidal effect/phytotoxicity was 90% or greater) | 5 (Herbicidal effect/phytotoxicity was 90% or greater) |
| CCOC(=O)COc1ccccc1Oc1cc(-c2c(Cl)n3n(c2=O)CCCC3)c(F)cc1Cl [Example 3-17] | 0 (Herbicidal effect/phytotoxicity was 0% to 10%) | 5 (Herbicidal effect/phytotoxicity was 90% or greater) | 5 (Herbicidal effect/phytotoxicity was 90% or greater) | 5 (Herbicidal effect/phytotoxicity was 90% or greater) |
| CCOC(=O)COc1cc(-c2c(Cl)n3n(c2=O)CCCC3)c(F)cc1Cl [Example 1-163] | 0 (Herbicidal effect/phytotoxicity was 0% to 10%) | 5 (Herbicidal effect/phytotoxicity was 90% or greater) | 5 (Herbicidal effect/phytotoxicity was 90% or greater) | 5 (Herbicidal effect/phytotoxicity was 90% or greater) |
| CC(C)Oc1cc(-c2c(Cl)n3n(c2=O)CCCC3)ccc1Cl [Example 1-49] | 0 (Herbicidal effect/phytotoxicity was 0% to 10%) | 5 (Herbicidal effect/phytotoxicity was 90% or greater) | 5 (Herbicidal effect/phytotoxicity was 90% or greater) | 5 (Herbicidal effect/phytotoxicity was 90% or greater) |
| C#CCOc1cc(-c2c(Cl)n3n(c2=O)CCOCC3)ccc1Cl [Example 1-66] | 1 (Herbicidal effect/phytotoxicity was 10% to 30%) | 5 (Herbicidal effect/phytotoxicity was 90% or greater) | 5 (Herbicidal effect/phytotoxicity was 90% or greater) | 5 (Herbicidal effect/phytotoxicity was 90% or greater) |
| O=c1c(-c2cc(NS(=O)(=O)c3ccccc3Cl)c(Cl)cc2F)c(Cl)n2n1CCCC2 [Example 5-63] | 0 (Herbicidal effect/phytotoxicity was 0% to 10%) | 5 (Herbicidal effect/phytotoxicity was 90% or greater) | 5 (Herbicidal effect/phytotoxicity was 90% or greater) | 5 (Herbicidal effect/phytotoxicity was 90% or greater) |
